# Source: patent US20040096356A1, “Assay device for determining analytes in a liquid dairy product” (priority 1997, published 2004)
# Key:
# Type in all cases: binding
# receptor BlaR-CTD [1] = molecular target: T1, receptor BlaR-CTD (Bacillus licheniformis, UniProt P12287); assay: 3-minute rapid test: strip test for β-lactam antibiotics in milk using BlaR-CTD; conditions: for Intensity 1st band: scale 0 to 10, reference band 6, 47° C., 1 min incubation + 2 min migration
# T1 construct: the receptor BlaR-CTD is the carboxy-terminal region of BlaR
# T1 sequence (P12287 340-601): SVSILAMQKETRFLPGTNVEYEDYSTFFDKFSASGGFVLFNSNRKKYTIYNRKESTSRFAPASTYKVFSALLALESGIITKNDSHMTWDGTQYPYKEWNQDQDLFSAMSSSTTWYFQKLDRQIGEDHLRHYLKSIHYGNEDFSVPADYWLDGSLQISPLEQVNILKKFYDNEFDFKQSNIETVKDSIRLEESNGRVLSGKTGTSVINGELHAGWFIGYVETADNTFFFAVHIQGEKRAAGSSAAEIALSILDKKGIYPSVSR
# Text: (§1) According to a preferred embodiment of the invention an identifier is used which comprises a receptor sensitive to antibiotics having a β-lactam ring, which receptor is obtained from Bacillus licheniformis, such as the receptor BlaR or the receptor BlaR-CTD. The isolation and the peptide sequence of the protein BlaR are described in Y. Zhu et al., J. Bacteriol., 1137-1141 (1990); the receptor BlaR-CTD is the carboxy-terminal region of BlaR, whose isolation and peptide sequence are described in B. Joris et al., FEMS Microbiology Letters, 107-114 (1990).
# (§2) This example illustrates the detection in milk of antibiotics having a β-lactam ring which are monitored by the health authorities. The test described in this example uses the receptor BlaR-CTD coupled with gold beads, which serve as labelling agents, and uses a support which is in the form of an assay device comprising a solid support on which membranes are fixed.
# (§3) 3.79 ml of a solution of recognition agent BlaR-CTD having a concentration of 6.6 mg/ml are taken up in a sodium phosphate buffer, 20 mM pH 7. To this solution of BlaR-CTD are then added 41.71 ml of bicarbonate buffer (0.1 M sodium bicarbonate, pH 9) and 2 ml of a solution of N-hydroxysuccinimide 6-(biotinamido)caproic ester containing 2.23 mg/ml likewise of bicarbonate buffer. This solution is stirred gently on a LABINCO stirrer for tubes on a rotary axis (available from VEL, Belgium) at a rate of 2 revolutions/minute for 2 hours at ambient temperature and away from light. 2.5 ml of a solution of Tris buffer, 1 M pH 8 are incubated with the reaction mixture under the same conditions for 30 minutes. The solution thus obtained is dialysed against HNM buffer (Hepes 100 mM, pH 8, NaCl 100 mM, MgCl2 50 mM) for 24 hours. In this way a biotinylated BlaR-CTD solution is obtained which is diluted in HNM-BSA buffer (Hepes 500 mM, pH 8, NaCl 500 mM, MgCl2 250 mM, BSA 10 mg/ml) to a concentration of 250 μg of biotinylated BlaR-CTD per ml of buffer. This solution is stored at −20° C.
# (§4) The biotinylated BlaR-CTD solution prepared in Example 3.1.1 is diluted 114.7 times with the HNM-BSA buffer (Hepes 500 mM, pH 8, NaCl 500 mM, MgCl2 250 mM, BSA 10 mg/ml). At room temperature, 22.5 parts by volume of this dilute biotinylated BlaR-CTD solution, 7.5 parts by volume of HNM-BSA buffer, 9.27 parts by volume of the gold particle suspension used to label the biotinylated BlaR-CTD and 6 parts by volume of reference gold particle suspension are mixed (see Example 3.1.4 below).
# (§5) The first capture substance makes it possible to fix the BlaR-CTD coupled with the gold beads present in excess relative to the quantity of antibiotic present in the sample.
# (§6) Assay devices containing membranes (2), (3) and (4) are used, assembled in accordance with the procedure described in Example 1.1. The membrane (3) of these devices carries on the proximal side the capture substance described in Example 32.1. and on the distal side the capture substance described in Example 3.2.2. The capture substances were deposited in accordance with the procedure described in Example 1.2.
# 7 samples of fresh milk are prepared, containing 0; 1; 2; 3; 4; 5 and 6 ppb, respectively, of penicillin G. Each of these solutions is then analysed as follows.
# An aliquot is taken of 200 μl of milk sample and 45.27 μl of solution prepared in Example 3.1.3, and is placed in a glass flask. This mixture is incubated at 47° C. for 1 minute. An assay device is taken and is placed vertically in the glass flask such that the first end of the assay device is in contact with the mixture and such that the second end rests on the wall of the glass flask. The mixture is allowed to migrate over the assay device while the assembly is incubated at 47° C. for 2 minutes.
# (§7) An intensity value ranging from 0 to 10 is awarded to the bands detected, the value 10 being given to the most intense band and the value 0 being given to the least intense band. On this scale, a value of 6 is awarded to the reference band. […]
# receptor BlaR-CTD [2] = molecular target: T1, receptor BlaR-CTD; assay: Five minutes test: strip test for β-lactam antibiotics in milk using BlaR-CTD; conditions: in 5 minutes; positive when first band is less intense than second band
# Text: as §1, §2, §3, §4, §5, §6
# Six samples of fresh milk are prepared, containing 0; 2; 4; 6; 8 and 10 ppb, repsectively, of cloxacillin. Each of these solutions is then analysed as follows.
# (§8) An aliquot is taken of 200 μl of milk sample and 45.27 μl of solution prepared in Example 3.1.3, and is placed in a glass flask. This mixture is incubated at 47° C. for 3 minutes. An assay device is taken and is placed vertically in the glass flask such that the first end of the assay device is in contact with the mixture in such a way that the second end rests on the wall of the glass flask. The mixture is allowed to migrate over the assay device while the assembly is incubated at 47° C. for 2 minutes.
# as §7
# receptor BlaR-CTD [3] = molecular target: T1, receptor BlaR-CTD; assay: 9-minute test: strip test for β-lactam antibiotics in milk using BlaR-CTD; conditions: in 9 minutes; positive when first band is less intense than second band
# Text: as §1, §2, §3, §4, §5, §6
# Six samples of fresh milk are prepared, containing 0; 4; 6; 8; 10 and 12 ppb, respectively, of cephapirin. Each of these solutions is then analysed as follows.
# as §8, with “for 7” for “for 3”
# as §7
smiles,measurement,setting,value
"CC1(C)S[C@@H]2[C@H](NC(=O)Cc3ccccc3)C(=O)N2[C@H]1C(=O)O [Penicillin G, penicillin G]",Intensity 1st band,receptor BlaR-CTD [1]; 1 ppb penicillin G in fresh milk,9
same,Intensity 1st band,receptor BlaR-CTD [1]; 2 ppb penicillin G in fresh milk,9
same,Intensity 1st band,receptor BlaR-CTD [1]; 3 ppb penicillin G in fresh milk,4
same,Intensity 1st band,receptor BlaR-CTD [1]; 4 ppb penicillin G in fresh milk,0
same,Intensity 1st band,receptor BlaR-CTD [1]; 5 ppb penicillin G in fresh milk,0
same,Intensity 1st band,receptor BlaR-CTD [1]; 6 ppb penicillin G in fresh milk,0
same,lowest concentration detected in a milk sample,"receptor BlaR-CTD [1]; in 3 minutes, positive when first band is less intense than second band",less than 4 ppb
same,lowest concentration detected in a milk sample,receptor BlaR-CTD [2],3 ppb
same,lowest concentration detected in a milk sample,receptor BlaR-CTD [3],3 ppb
